In patent US6992169B2, “Carrier based drug delivery system” (Cyclacel Limited, priority 1998, dated 2006):

What was measured:
HaCaT cells = assay: In vitro cytotoxic activity, inhibition of cell proliferation, ATP bioluminescence (ViaLight); type: cell-based, human
Description: (§1) This compound (abbreviated ‘MTX-Pen’ in the tables below) was evaluated for its ability to inhibit cell proliferation of normal (immortalised) human cells (HaCaT cells, Tables 1 & 2) and a human colorectal cancer cell line (HT29, Table 3).
(§2) Assay procedure—Cells were seeded into 96-well plates at 2,500 cells/well in DMEM with 10% FCS and antibiotics. After overnight incubation, test compound dilutions in cell medium were prepared and were added to the cells. Samples were taken 1, 2, 3, and 4 days after compound addition. Nucleotide Releasing Reagent (LumiTech ViaLight kit) was added in order to lyse the cells and release ATP. After incubation at room temperature (5 min), the mixtures were transferred to opaque 96-well plates and stored at −20° C. until analysis. After loading plates into a luminometer (Lucy 1, Labtech International), ATP Monitoring Reagent (20 μL/well, LumiTech ViaLight kit) was added to each well successively and light intensity was measured immediately. Six readings were taken per sample. Each assay point was established using six replicates and appropriate controls. […] Statistically significant results in the tables below are printed in bold face.
(§3) This compound (abbreviated ‘MTX-Pen’ in tables below) was evaluated for its ability to inhibit cell proliferation of normal (immortalised) human cells (HaCaT cells, Tables 1 & 2) and a human colorectal cancer cell line (HT29, Table 3).
(§4) Assay procedure—Cells were seeded into 96-well plates at 2,500 cells/well in DMEM with 10% foetal calf serum and antibiotics. After overnight incubation, test compound dilutions in cell medium were prepared and were added to the cells. Samples were taken 1, 2, 3, and 4 days after compound addition. Nucleotide Releasing Reagent (LumiTech ViaLight kit) was added in order to lyse the cells and release ATP. After incubation at room temperature (5 min), the mixtures were transferred to opaque 96-well plates and stored at −20° C. until analysis. After loading plates into a luminometer (Lucy 1, Labtech International), ATP Monitoring Reagent ([…], LumiTech ViaLight kit) was added to each well successively and light intensity was measured immediately. Six readings were taken per sample. Each assay point was established using six replicates and appropriate controls.

HT29 = assay: as above; type: cell-based, human
Description: as §1, §2, §3, §4

{[4[N-(2,4-Diamino-6-pteridinyl-methyl)-N-methylamino]benzoyl]-Glu-Gly-βAla}4-Lys2-Lys-βAla-Arg-Gln-Ile-Lys-Ile-Trp-Phe-Gln-Asn-Arg-Arg-Met-Lys-Trp-Lys-Lys-OH [MTX-Pen]
% Cell Death (HaCaT cells; Table 1, HaCaT, Dose 0.2 μM, Day 1): 14% | % Cell Death (HaCaT cells; Table 1, HaCaT, Dose 0.2 μM, Day 2): 21% | % Cell Death (HaCaT cells; Table 1, HaCaT, Dose 0.2 μM, Day 3): 20% | % Cell Death (HaCaT cells; Table 1, HaCaT, Dose 0.2 μM, Day 4): 51% | % Cell Death (HaCaT cells; Table 1, HaCaT, Dose 0.5 μM, Day 1): −19% | % Cell Death (HaCaT cells; Table 1, HaCaT, Dose 0.5 μM, Day 2): 2% | % Cell Death (HaCaT cells; Table 1, HaCaT, Dose 0.5 μM, Day 3): 29% | % Cell Death (HaCaT cells; Table 1, HaCaT, Dose 0.5 μM, Day 4): 49% | % Cell Death (HaCaT cells; Table 1, HaCaT, Dose 1.5 μM, Day 1): −24% | % Cell Death (HaCaT cells; Table 1, HaCaT, Dose 1.5 μM, Day 2): 82% | % Cell Death (HaCaT cells; Table 1, HaCaT, Dose 1.5 μM, Day 3): 82% | % Cell Death (HaCaT cells; Table 1, HaCaT, Dose 1.5 μM, Day 4): 88% | % Cell Death (HaCaT cells; Table 1, HaCaT, Dose 4.4 μM, Day 1): −8% | % Cell Death (HaCaT cells; Table 1, HaCaT, Dose 4.4 μM, Day 2): 45% | % Cell Death (HaCaT cells; Table 1, HaCaT, Dose 4.4 μM, Day 3): 95% | % Cell Death (HaCaT cells; Table 1, HaCaT, Dose 4.4 μM, Day 4): 98% | % Cell Death (HaCaT cells; Table 1, HaCaT, Dose 13.3 μM, Day 1): −42% | % Cell Death (HaCaT cells; Table 1, HaCaT, Dose 13.3 μM, Day 2): 63% | % Cell Death (HaCaT cells; Table 1, HaCaT, Dose 13.3 μM, Day 3): 97% | % Cell Death (HaCaT cells; Table 1, HaCaT, Dose 13.3 μM, Day 4): 98% | % Cell Death (HaCaT cells; Table 1, HaCaT, Dose 40.0 μM, Day 1): 29% | % Cell Death (HaCaT cells; Table 1, HaCaT, Dose 40.0 μM, Day 2): 82% | % Cell Death (HaCaT cells; Table 1, HaCaT, Dose 40.0 μM, Day 3): 97% | % Cell Death (HaCaT cells; Table 1, HaCaT, Dose 40.0 μM, Day 4): 98% | % Cell Death (HaCaT cells; Table 2, HaCaT, Dose 0.5 μM, Day 1): 13% | % Cell Death (HaCaT cells; Table 2, HaCaT, Dose 0.5 μM, Day 2): 24% | % Cell Death (HaCaT cells; Table 2, HaCaT, Dose 0.5 μM, Day 3): −27% | % Cell Death (HaCaT cells; Table 2, HaCaT, Dose 0.5 μM, Day 4): 2% | % Cell Death (HaCaT cells; Table 2, HaCaT, Dose 1.5 μM, Day 1): 19% | % Cell Death (HaCaT cells; Table 2, HaCaT, Dose 1.5 μM, Day 2): 12% | % Cell Death (HaCaT cells; Table 2, HaCaT, Dose 1.5 μM, Day 3): −16% | % Cell Death (HaCaT cells; Table 2, HaCaT, Dose 1.5 μM, Day 4): 17% | % Cell Death (HaCaT cells; Table 2, HaCaT, Dose 4.4 μM, Day 1): 15% | % Cell Death (HaCaT cells; Table 2, HaCaT, Dose 4.4 μM, Day 2): 52% | % Cell Death (HaCaT cells; Table 2, HaCaT, Dose 4.4 μM, Day 3): 95% | % Cell Death (HaCaT cells; Table 2, HaCaT, Dose 4.4 μM, Day 4): 88% | % Cell Death (HaCaT cells; Table 2, HaCaT, Dose 13.3 μM, Day 1): 27% | % Cell Death (HaCaT cells; Table 2, HaCaT, Dose 13.3 μM, Day 2): 87% | % Cell Death (HaCaT cells; Table 2, HaCaT, Dose 13.3 μM, Day 3): 95% | % Cell Death (HaCaT cells; Table 2, HaCaT, Dose 13.3 μM, Day 4): 94% | % Cell Death (HaCaT cells; Table 2, HaCaT, Dose 40.0 μM, Day 1): 42% | % Cell Death (HaCaT cells; Table 2, HaCaT, Dose 40.0 μM, Day 2): 88% | % Cell Death (HaCaT cells; Table 2, HaCaT, Dose 40.0 μM, Day 3): 95% | % Cell Death (HaCaT cells; Table 2, HaCaT, Dose 40.0 μM, Day 4): 94% | % Cell Death (HT29; Table 3, HT 29, Dose 0.5 μM, Day 1): 14% | % Cell Death (HT29; Table 3, HT 29, Dose 0.5 μM, Day 2): 8% | % Cell Death (HT29; Table 3, HT 29, Dose 0.5 μM, Day 3): 17% | % Cell Death (HT29; Table 3, HT 29, Dose 0.5 μM, Day 4): 16% | % Cell Death (HT29; Table 3, HT 29, Dose 1.5 μM, Day 1): 16% | % Cell Death (HT29; Table 3, HT 29, Dose 1.5 μM, Day 2): 9% | % Cell Death (HT29; Table 3, HT 29, Dose 1.5 μM, Day 3): 15% | % Cell Death (HT29; Table 3, HT 29, Dose 1.5 μM, Day 4): 45% | % Cell Death (HT29; Table 3, HT 29, Dose 4.4 μM, Day 1): 10% | % Cell Death (HT29; Table 3, HT 29, Dose 4.4 μM, Day 2): 6% | % Cell Death (HT29; Table 3, HT 29, Dose 4.4 μM, Day 3): 46% | % Cell Death (HT29; Table 3, HT 29, Dose 4.4 μM, Day 4): 77% | % Cell Death (HT29; Table 3, HT 29, Dose 13.3 μM, Day 1): 3% | % Cell Death (HT29; Table 3, HT 29, Dose 13.3 μM, Day 2): 45% | % Cell Death (HT29; Table 3, HT 29, Dose 13.3 μM, Day 3): 88% | % Cell Death (HT29; Table 3, HT 29, Dose 13.3 μM, Day 4): 96% | % Cell Death (HT29; Table 3, HT 29, Dose 40.0 μM, Day 1): 31% | % Cell Death (HT29; Table 3, HT 29, Dose 40.0 μM, Day 2): 79% | % Cell Death (HT29; Table 3, HT 29, Dose 40.0 μM, Day 3): 96% | % Cell Death (HT29; Table 3, HT 29, Dose 40.0 μM, Day 4): 98%
